Assay results published in patent US11498896B2 (The Broad Institute, Inc., priority 2014, dated 2022).

Tests used:
D2 receptor = D2 receptor (Homo sapiens (Human), UniProt P14416); experiment: D2 radioligand binding assay
human D2R/β-arrestin [1] = target: T1, human D2R/β-arrestin (Homo sapiens (Human), UniProt P14416); experiment: β-arrestin agonist assay (PathHunter); assay type: cell-based; conditions: CHO-K1 cells expressing human D2R/β-arrestin; agonist mode
Method: The detection reagent (9.6 μL, Buffer:Emerald II:Galactor-Star in a 19:5:1 ratio, i.e., 14.06 mL:3.7 mL:0.74 mL=18.5 mL) was then added to the agonist plates.

human D2R/β-arrestin [2] = target: T1, human D2R/β-arrestin; experiment: Gi/cAMP agonist assay (Lance Ultra cAMP, forskolin); assay type: cell-based; conditions: CHO-K1 cells expressing human D2R/β-arrestin; agonist mode, 2.5 μM forskolin
Method: Eu-cAMP tracer solution (10 μl, PerkinElmer, 360 μl of Tracer in 17.64 ml kit buffer) and ULight-anti-cAMP solution (10 μl, 120 μL antibody in 17.88 ml kit buffer) was then added to each well.

human D2R/β-arrestin [3] = target: T1, human D2R/β-arrestin; experiment: cell-based; conditions: β-arrestin Antagonist, CHO-K1 cells expressing human D2R/β-arrestin; antagonist mode, quinpirole 130 nM
human D2R/β-arrestin [4] = target: T1, human D2R/β-arrestin; experiment: cell-based; conditions: cAMP Antagonist, CHO-K1 cells expressing human D2R/β-arrestin; antagonist mode, 2.5 μM forskolin and 2.7 nM quinpirole
Method: Cells were prepared for assays by growing cultures for up to 2 weeks (from about 6-20 passages). A vial of frozen cells was thawed in a water bath held at 37° C. The cells were then transferred into a 50 ml tube with 10 ml growth media. The vial was rinsed with growth media and the contents transferred to the 50 ml tube. The 50 ml tube was centrifuged at 1200 rpm for 5 minutes at room temperature. […] When the cells reached about 90% confluence (approximately 3 days between passages), the cells were passaged and used for either the agonist or antagonist assays as described below.
The cells were prepared for Gi/cAMP assays as described above. The assays were performed using a PE Lance Ultra cAMP kit (TRF0263). The cells were grown on 225 mm dishes, then washed once with 1×PBS (Cellgro) before digestion with 2.5 ml 1× Detachment reagent (DRX 92-0009) for about 2 minutes. PBS (20 ml) was then added to the plate, and the cells were transferred to a 50 ml centrifuge tube, and centrifuged at room temperature using BD Dynac III, at 1200 rpm for 5 minutes. […] The plates were then incubated at room temperature for about 30 minutes before addition of Eu-cAMP tracer solution (10 μl, PerkinElmer) and then ULight-anti-cAMP solution (10 μl) to each well.

T1 sequence (P14416 whole entry): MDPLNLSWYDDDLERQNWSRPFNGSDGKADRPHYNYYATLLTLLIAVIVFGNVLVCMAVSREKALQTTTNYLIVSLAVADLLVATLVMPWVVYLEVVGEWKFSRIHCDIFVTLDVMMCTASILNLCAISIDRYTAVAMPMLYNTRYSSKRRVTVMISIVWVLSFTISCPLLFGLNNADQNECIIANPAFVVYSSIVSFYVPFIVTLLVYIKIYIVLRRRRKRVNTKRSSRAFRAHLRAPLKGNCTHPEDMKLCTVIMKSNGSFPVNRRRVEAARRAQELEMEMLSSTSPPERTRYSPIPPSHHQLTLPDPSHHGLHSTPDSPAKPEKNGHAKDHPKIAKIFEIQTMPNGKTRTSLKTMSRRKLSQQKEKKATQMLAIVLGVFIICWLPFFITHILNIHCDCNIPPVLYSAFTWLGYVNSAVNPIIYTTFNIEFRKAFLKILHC
Sequence of D2 receptor (P14416 whole entry): as above

Structure (SMILES)	Ki (D2 receptor) [µM]	EC50 (human D2R/β-arrestin [1]) [µM]	EC50 (human D2R/β-arrestin [2]) [µM]	IC50 (human D2R/β-arrestin [3]) [µM]	IC50 (human D2R/β-arrestin [4]) [µM]
CNC(=O)C1(C)CCN(CC2COc3ccccc3O2)CC1 (single isomer, unassigned) [Compound 202b, 1-((2,3-dihydrobenzo[b][1,4]dioxin-2-yl)methyl)-N,4-dimethylpiperidine-4-carboxamide]	1 to 10	> 30	0.1 to 1	0.1 to 1	0.1 to 1
CC1(Oc2ccccc2)CCN(CCOc2cccc(C(F)(F)F)c2)CC1 [Example 67, 4-methyl-4-phenoxy-1-(2-(3-(trifluoromethyl)phenoxy)ethyl)piperidine]	–	> 30	< 0.1	0.1 to 1	> 30
Cc1ccccc1OCCN1CCC(C)(Oc2ccccc2)CC1 [Example 69, 4-methyl-4-phenoxy-1-(2-(o-tolyloxy)ethyl)piperidine]	–	< 0.1	< 0.1	0.1 to 1	> 30
CCc1ccccc1OCCN1CCC(C)(Oc2ccccc2)CC1 [Example 70, 1-(2-(2-Ethylphenoxy)ethyl)-4-methyl-4-phenoxypiperidine]	–	> 30	< 0.1	0.1 to 1	10 to 30
CC(C)c1ccccc1OCCN1CCC(C)(Oc2ccccc2)CC1 [Example 71, 1-(2-(2-isopropylphenoxy)ethyl)-4-methyl-4-phenoxypiperidine]	–	> 30	> 30	0.1 to 1	0.1 to 1
COc1ccccc1OCCN1CCC(C)(Oc2ccccc2)CC1 [Example 72, 1-(2-(2-Methoxyphenoxy)ethyl)-4-methyl-4-phenoxypiperidine]	–	> 30	< 0.1	0.1 to 1	< 0.1
CC1(Oc2ccccc2)CCN(CCOc2ccc(F)cc2C(F)(F)F)CC1 [Example 75, 1-(2-(4-Fluoro-2-(trifluoromethyl)phenoxy)ethyl)-4-methyl-4-phenoxy piperidine]	–	> 30	> 30	0.1 to 1	0.1 to 1
CC1(Oc2ccccc2)CCN(CCOc2cc(F)ccc2C(F)(F)F)CC1 [Example 76, 1-(2-(5-fluoro-2-(trifluoromethyl)phenoxy)ethyl)-4-methyl-4-phenoxypiperidine]	–	> 30	< 0.1	0.1 to 1	> 30
CC1(Oc2ccccc2)CCN(CCn2cccc(C(F)(F)F)c2=O)CC1 [Example 77, 1-(2-(4-methyl-4-phenoxypiperidin-1-yl)ethyl)-3-(trifluoromethyl)pyridin-2(1H)-one]	–	> 30	10 to 30	> 30	> 30
CC1(Oc2ccccc2)CCN(C(C)(C)COc2ccccc2C(F)(F)F)CC1 [Example 80, 4-methyl-1-(2-methyl-1-(2-(trifluoromethyl)phenoxy)propan-2-yl)-4-phenoxypiperidine]	–	> 30	10 to 30	1 to 10	1 to 10
CC(CO)N1CCC(C)(Oc2ccccc2)CC1 (stereo not drawn) [Example 81, 2-(4-Methyl-4-phenoxypiperidin-1-yl)propan-1-ol]	–	> 30	1 to 10	10 to 30	> 30
CC1CC(C)(Oc2ccccc2)CC(C)N1CCOc1ccccc1C(F)(F)F (stereo not drawn) [Example 83, 2,4,6-Trimethyl-4-phenoxy-1-(2-(2-(trifluoromethyl)phenoxy)ethyl) piperidine]	–	> 30	> 30	1 to 10	0.1 to 1
COc1ccccc1OC1(C)CCN(CCOc2ccccc2)C1 (stereo not drawn) [Example 84, 3-(2-Methoxyphenoxy)-3-methyl-1-(2-phenoxyethyl)pyrrolidine]	–	> 30	1 to 10	1 to 10	> 30
Cc1ccccc1OC1(C)CCN(CCOc2ccccc2)C1 (stereo not drawn) [Example 85, 3-Methyl-1-(2-phenoxyethyl)-3-(o-tolyloxy)pyrrolidine]	–	> 30	< 0.1	1 to 10	> 30
CC1(Oc2ccccc2)CCN(CCOc2ccccc2F)CC1 [Example 87, 1-(2-(2-fluorophenoxy)ethyl)-4-methyl-4-phenoxypiperidine]	–	< 0.1	< 0.1	> 30	> 30
CC1(Oc2ccc(Cl)cc2)CCN(CCOc2ccccc2Cl)CC1 [Example 88, 4-(4-chlorophenoxy)-1-(2-(2-chlorophenoxy)ethyl)-4-methylpiperidine]	–	< 0.1	< 0.1	< 0.1	> 30

Structure (SMILES)	Ki (D2 receptor) [µM]	EC50 (human D2R/β-arrestin [1]) [µM]	EC50 (human D2R/β-arrestin [2]) [µM]	IC50 (human D2R/β-arrestin [3]) [µM]	IC50 (human D2R/β-arrestin [4]) [µM]
CC1(Oc2ccccc2)CCN(CCOc2ccccc2Cl)CC1 [Example 89, 1-(2-(2-Chlorophenoxy)ethyl)-4-methyl-4-phenoxypiperidine]	–	< 0.1	< 0.1	< 0.1	> 30
CC1(Oc2ccc(Cl)cc2)CCN(CCOc2ccc3ncoc3c2)C1 (stereo not drawn) [Example 92, 6-(2-(3-(4-Chlorophenoxy)-3-methylpyrrolidin-1-yl)ethoxy)benzo[d]oxazole]	–	> 30	< 0.1	1 to 10	0.1 to 1
OC1(c2ccccc2)CCN(CCOc2ccccc2)C1 (stereo not drawn) [Example 93, 1-(2-Phenoxyethyl)-3-phenylpyrrolidin-3-ol]	–	> 30	0.1 to 1	1 to 10	0.1 to 1
O=[N+]([O-])c1ccc(OC2(c3ccccc3)CCN(CCOc3ccccc3)C2)cc1 (stereo not drawn) [Example 94, 3-(4-nitrophenoxy)-1-(2-phenoxyethyl)-3-phenylpyrrolidine]	–	> 30	0.1 to 1	1 to 10	1 to 10
CC1(Oc2ccc(Cl)cc2)CCCN(CCOc2ccccc2Cl)C1 (stereo not drawn) [Example 97, 3-(4-chlorophenoxy)-1-(2-(2-chlorophenoxy)ethyl)-3-methylpiperidine]	–	> 30	> 30	0.1 to 1	< 0.1
CC1(Oc2ccc(Cl)cc2)CCCN(CCOc2ccccc2F)C1 (stereo not drawn) [Example 98, 3-(4-Chlorophenoxy)-1-(2-(2-fluorophenoxy)ethyl)-3-methylpiperidine]	–	> 30	> 30	0.1 to 1	< 0.1
CC1(Oc2cccc(C(F)(F)F)c2)CCCN(CCOc2ccccc2)C1 (stereo not drawn) [Example 100, 3-methyl-1-(2-phenoxyethyl)-3-(3-(trifluoromethyl)phenoxy)piperidine]	–	> 30	> 30	1 to 10	0.1 to 1
FC(F)(F)c1ccccc1OCCN1CCC(=Cc2ccccc2)CC1 [Example 101, 4-benzylidene-1-(2-(2-(trifluoromethyl)phenoxy)ethyl)piperidine]	–	> 30	> 30	1 to 10	1 to 10
FC(F)(F)c1ccccc1OCCN1CCC2(CC1)CC2c1ccccc1 (stereo not drawn) [Example 102, 1-Phenyl-6-(2-(2-(trifluoromethyl)phenoxy)ethyl)-6-azaspiro[2.5]octane]	–	> 30	0.1 to 1	1 to 10	1 to 10
OC(c1ccccc1)C1(O)CCN(CCOc2ccccc2C(F)(F)F)CC1 (stereo not drawn) [Example 103, 4-(Hydroxy(phenyl)methyl)-1-(2-(2-(trifluoromethyl)phenoxy)ethyl) piperidin-4-ol]	–	> 30	> 30	0.1 to 1	0.1 to 1
CC1(Oc2ccccc2Cl)CCN(CCOc2ccccc2C(F)(F)F)CC1 [Example 104, 4-(2-Chlorophenoxy)-4-methyl-1-(2-(2-(trifluoromethyl)phenoxy)ethyl) piperidine]	–	> 30	10 to 30	0.1 to 1	1 to 10
CC1(Oc2ccccn2)CCN(CCOc2ccccc2C(F)(F)F)CC1 [Example 105, 2-((4-methyl-1-(2-(2-(trifluoromethyl)phenoxy)ethyl)piperidin-4-yl)oxy) pyridine]	–	> 30	< 0.1	0.1 to 1	< 0.1
CC1(C(O)c2ccccc2)CCN(CCOc2ccccc2C(F)(F)F)CC1 (stereo not drawn) [Example 107, (4-methyl-1-(2-(2-(trifluoromethyl)phenoxy)ethyl)piperidin-4-yl)(phenyl)methanol]	–	10 to 30	< 0.1	0.1 to 1	0.1 to 1
CC1(Oc2ccc(Cl)cc2)CCCN(C(C)(C)COc2ccccc2)C1 (stereo not drawn) [Example 108, 3-(4-Chlorophenoxy)-3-methyl-1-(2-methyl-1-phenoxypropan-2-yl)piperidine]	–	> 30	> 30	10 to 30	1 to 10
CC1(Oc2ccccc2)CCN(CCOc2ccccc2C#N)CC1 [Example 109, 2-(2-(4-methyl-4-phenoxypiperidin-1-yl)ethoxy)benzonitrile]	–	< 0.1	< 0.1	< 0.1	> 30
CN(C)c1ccccc1OCCN1CCC(C)(Oc2ccccc2)CC1 [Example 111, N,N-dimethyl-2-(2-(4-methyl-4-phenoxypiperidin-1-yl)ethoxy)aniline]	–	> 30	> 30	1 to 10	0.1 to 1
